The results in this text go back to PubChem BioAssay AID1053144 (Broad Institute, 2014).

Structures are written as SMILES.

For this test, the system named is NPC TCF/LEF luciferase reporter, Wnt3a EC25, 24 h. Nature of the test: Wnt/beta-catenin signaling activators, dose response, cell-based, iPS-derived NPC, luciferase, Wnt3a, cherry-pick (AID 1053144).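 Note: Wnt3a stimulus is conditioned medium from Wnt3a-transfected mouse L cells at 5% in well.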
Regarding `CCC(=O)Nc1sc(C(=O)Nc2ccccc2)c(C)c1C(=O)OC`, the AC30 was 9.81 µM.

With `Fc1ccc2nc3[nH]c4ccccc4c3nc2c1`, the AC30 was 8.76 µM.

`O=C(O)c1ccc2c(c1)C(=O)N(c1ccc(/C=C/C(=O)c3ccccc3)cc1)C2=O`: the AC30 is 18.7 µM.

As to `C(=C\c1nc(-c2cccnc2)no1)/c1ccccc1`, the AC30 is 4.78 µM.

In the case of `COc1ccc(CCNC(=O)c2cc(-c3ccco3)on2)cc1OC`, the AC30 is 11.4 µM.

Take `CC(=O)Nc1ccc2nc3ccccc3nc2c1`: the AC30 is 15.3 µM.

With `CCc1cc2c(=O)[nH]c(-c3ccccn3)nc2s1`, the AC30 was 10.2 µM.

`O=C(Nc1ccc(NC(=O)C2CCCCC2)nc1)c1cccs1`: the AC30 is 10.1 µM.

For the molecule `Cc1ccc2nc(-c3ccc(NS(=O)(=O)c4ccc(F)cc4)cc3)sc2c1`, the AC30 was 4.78 µM.

As to `Cc1ccc2nc(-c3ccc(NC(=O)CSCC(=O)O)cc3)sc2c1`, the AC30 was 2.04 µM.

`O=c1cc(-c2cccs2)oc2ccc(Cl)cc12`: the AC30 is 5.83 µM.

Consider `O=C(COC(=O)c1cccs1)c1ccc2ccccc2c1`, for which the AC30 was 9.52 µM.

Turning to `CC(C)C1COC(c2cccc3ccccc23)=N1` (centres undefined), the AC30 was 4.78 µM.

Consider `O=C(/C=C\c1ccc(-c2ccccc2)o1)c1ccccc1`, for which the AC30 is 4.16 µM.

`O=C(Nc1ccc(Br)cn1)c1ccc(Br)s1`: the AC30 was 4.78 µM.

Take `O=C(c1ccc(-c2ccc(Cl)cc2Cl)o1)N1CCOCC1`: the AC30 is 8.53 µM.

Take `COc1cccc(NC(=O)c2csc3c2CCCC3)c1`: the AC30 is 4.78 µM.

Turning to `Cc1cc(C)n(CCC(=O)N/N=C/c2ccc(Br)c([N+](=O)[O-])c2)n1`, the AC30 was 17.2 µM.

As for `Nc1nc(-c2cc3ccccc3o2)cs1`, the AC30 was 4.78 µM.

For `CCOc1ccc(-c2nnc(-c3ccccc3)n2-c2ccccc2)cc1`, the AC30 is 12.4 µM.

With `CSc1ccccc1C(=O)Nc1ccc2c(c1)CCC2`, the AC30 was 3.13 µM.

Regarding `Cn1c(SCC(=O)c2ccccc2)nnc1-c1ccco1`, the AC30 is 4.78 µM.

Take `Cc1ccsc1/C=N\NC(=O)c1ccc2c(c1)OCO2`: the AC30 is 4.78 µM.

Turning to `COc1ccc(N2COC3c4cccc5cccc(c45)C32)cc1` (centres undefined), the AC30 is 17.8 µM.

Turning to `COc1ccc(/C=C/c2ccncc2)cc1`, the AC30 is 11.1 µM.

Take `O=C(NCC1CCCO1)c1cc(-c2ccc(F)cc2)no1` (centres undefined): the AC30 is 15.9 µM.

Consider `CCOc1cc(/C=N/NC(=O)N/N=C/c2ccc(O)c(OCC)c2)ccc1O`, for which the AC30 is 13.1 µM.

In the case of `O=C(NCCc1c[nH]c2ccccc12)c1cc2ccccc2oc1=O`, the AC30 is 13.4 µM.

Take `O=C1c2ccccc2C(=O)C1c1ccc(O)cc1`: the AC30 was 14.7 µM.

With `O=c1oc(CCO)cc2ccc(C#Cc3ccsc3)cc12`, the AC30 was 4.78 µM.

Regarding `CCc1ccccc1NC(=O)c1cccc(NC(=O)/C=C/c2ccco2)c1`, the AC30 is 13.2 µM.

Take `CNC(=O)c1ccsc1NC(=O)c1sc2ccccc2c1Cl`: the AC30 is 12.4 µM.

Consider `O=C(NC1CCCC1)c1cc(-c2ccccc2)on1`, for which the AC30 was 8.71 µM.

`COc1cccc(/C=C2\N=C3CCCCCN3C2=O)c1`: the AC30 was 16.1 µM.

In the case of `COc1ccc2c(c1)c(/C=N/Nc1nc3ccccc3[nH]1)c(C)n2C`, the AC30 is 12.1 µM.

`Cc1[nH]c2ccccc2c1/C=N/Nc1nc2ccccc2[nH]1`: the AC30 is 5.61 µM.

Consider `CN(C)S(=O)(=O)Oc1cccc(C(=O)Nc2cccc(Cl)c2)c1`, for which the AC30 was 13 µM.

Regarding `COCCNC(=O)c1ccc2c3n(nc2c1)-c1ccc(C)cc1CO3`, the AC30 is 10.7 µM.

As to `Nc1ccc2nc(-c3ccccc3)cnc2c1`, the AC30 is 8.28 µM.

In the case of `CN1CCSc2ccc(C(=O)Nc3cc(F)ccc3F)cc21`, the AC30 was 2.35 µM.

In the case of `CCNc1nc(N)c(C(=O)c2ccc(Cl)s2)s1`, the AC30 is 11.3 µM.

`Cc1oc(=O)c(NC(=O)c2cccc(Cl)c2)cc1C(=O)c1ccccc1`: the AC30 is 7.11 µM.

Consider `Clc1ccc(SCc2cn3ccsc3n2)cc1`, for which the AC30 is 8.8 µM.

`Cc1ccc2cc(NC(=O)c3cccc(F)c3)ccc2n1`: the AC30 is 10.5 µM.

As for `O=C(CCCCCCC(=O)Nc1ccccc1)NO`, the AC30 was 1.47 µM.

With `COc1cc(C(=O)O/N=C2\C=CC(=O)C(C)=C2)cc(OC)c1OC`, the AC30 was 16 µM.

Turning to `CCOc1ccc(CCNC(=O)/C=C/c2ccco2)cc1OCC`, the AC30 was 13.5 µM.

As for `CCOC(=O)c1ccc(-c2ccc(CO)o2)cc1`, the AC30 was 17.5 µM.

Regarding `O=C(/C=C/c1ccccc1)c1c[nH]c2ccccc12`, the AC30 was 4.78 µM.

In the case of `O=C(N/N=C/C(Br)=C\c1ccccc1)c1cccs1`, the AC30 is 13.7 µM.

Regarding `CCC(=O)NC1=C(Nc2ccc(N)cc2)C(=O)c2ccccc2C1=O`, the AC30 was 5.42 µM.

As to `CCCc1cc(C(=O)Nc2cccc(C(C)=O)c2)no1`, the AC30 was 10.5 µM.

Regarding `O=[N+]([O-])c1ccccc1-c1nc(-c2ccc(Br)o2)no1`, the AC30 is 4.78 µM.

Consider `COc1ccccc1OCc1cc(C(=O)N(C)CCC2CCOCC2)no1`, for which the AC30 was 9.94 µM.

`CC1(C)CC(=O)/C(=N/Nc2ccc(Cl)cc2)CO1`: the AC30 is 4.78 µM.

Take `Cc1ccc2nc(-c3ccc(NS(=O)(=O)c4c(C)n(C)c(=O)n(C)c4=O)cc3)sc2c1`: the AC30 is 2.2 µM.

Consider `c1ccc2c(c1)oc1c(Nc3ccc4c(c3)OCO4)ncnc12`, for which the AC30 was 4.78 µM.

On to `O=C1Nc2ccccc2S/C1=C/c1cccs1`, for which the AC30 was 12.9 µM.

As for `Nc1c2ccccc2nc2ccccc12`, the AC30 was 5.99 µM.

For `CCOC(=O)C1=C(COC(=O)c2cccc(N(C)C)c2)NC(=O)NC1C` (centres undefined), the AC30 is 11.8 µM.

Take `COc1ccc(-c2ccc(SCC(=O)Nc3cc(C)on3)nn2)cc1OC`: the AC30 is 15.1 µM.

Consider `Nc1ccccc1C(=O)/C=C/c1ccc2c(c1)OCO2`, for which the AC30 was 2.2 µM.

Turning to `O=[N+]([O-])c1cccc(-c2nnc(-c3ccccc3F)o2)c1`, the AC30 is 8.84 µM.

In the case of `COCCNC(=O)c1cc(-c2cccs2)on1`, the AC30 was 16.9 µM.

Regarding `CC(=O)N(C)c1ccc(NC(=O)c2ccco2)cc1`, the AC30 is 11.6 µM.

For the molecule `O=C(NCCc1ccccc1)c1cc(-c2ccco2)on1`, the AC30 is 10.7 µM.

Consider `O=c1[nH]c(=O)n([C@H]2C[C@H](O)[C@@H](CO)O2)cc1Br`, for which the AC30 is 13.2 µM.

On to `COc1ccc(NC(=O)n2ncc3c(C)cccc32)cc1`, for which the AC30 is 4.78 µM.

In the case of `O=C1C=C(c2ccc3[nH]ccc3c2)CCC1`, the AC30 was 10.1 µM.

With `CCOC(=O)N1CCC(Nc2c(NCCCN3CCN(c4ccc(OC)cc4)CC3)c(=O)c2=O)CC1`, the AC30 was 19.5 µM.

Turning to `Cc1csc(=NC(=O)c2ccccc2)n1C`, the AC30 was 8.72 µM.

For `COc1cccc(-c2nnc(SCC(=O)N(C(C)C)C(C)C)o2)c1`, the AC30 was 20.7 µM.

Consider `COc1ccc(N=C(C)c2sc3ccccc3c2O)cc1`, for which the AC30 is 4.78 µM.

Regarding `COc1ccc2oc(C(=O)c3ccccc3)c(N)c2c1`, the AC30 was 7.18 µM.

Turning to `O=C(c1ccccc1)c1ccc2nc(-c3ccco3)c(-c3ccco3)nc2c1`, the AC30 is 8.23 µM.

With `Fc1ccccc1-c1ccc(/C=N/Nc2nc3ccccc3[nH]2)o1`, the AC30 is 17.3 µM.

Take `O=C(NCCCn1ccnc1)c1cc(-c2ccccc2)on1`: the AC30 is 7.41 µM.

With `CC1(C)CC(=O)C2=C(C1)c1c(ccc3ccccc13)NC2c1ccco1` (centres undefined), the AC30 was 14.8 µM.

In the case of `O=C(O)c1ccc(/C=C(\c2nc3ccccc3[nH]2)c2nc3ccccc3s2)cc1`, the AC30 was 15.8 µM.

Turning to `COc1ccccc1C(=O)O/N=C(\N)c1ccc(Cl)cc1`, the AC30 is 6.87 µM.

For the molecule `c1ccc(-c2cc(-c3ccccc3)on2)cc1`, the AC30 is 4.78 µM.

In the case of `COc1ccc(-c2ccc3ccccc3n2)cc1OC`, the AC30 was 9.49 µM.

Turning to `O=C(Nc1ccc2nc(-c3ccccc3)[nH]c2c1)c1ccco1`, the AC30 is 16.9 µM.

Turning to `Cc1cccc(NC(=O)c2c(O)c3ccccc3[nH]c2=O)c1`, the AC30 is 6.72 µM.

For `C=CCNC(=O)c1ccc2c3n(nc2c1)-c1ccc(Cl)cc1CO3`, the AC30 is 9.82 µM.

Turning to `O=C(Nc1ccccc1O)c1ccc(NS(=O)(=O)c2cccc3cccnc23)cc1`, the AC30 is 3.53 µM.

Turning to `O=C(c1cccs1)c1coc2ccc(O)cc12`, the AC30 is 15 µM.

For the molecule `CCc1ccccc1-n1c(SCC(=O)N2CCCC2)nnc1-c1ccccn1`, the AC30 was 8.48 µM.

For the molecule `O=Nc1c(-c2c(O)[nH]c3cc(Br)ccc23)[nH]c2ccccc12`, the AC30 is 0.942 µM.

Consider `Cc1ccc(-n2ncc3c(Nc4cccc(C(=O)O)c4)ncnc32)cc1`, for which the AC30 is 4.78 µM.

In the case of `COc1ccc(NC(=O)c2ccccc2NC(=O)C2CCCCC2C(=O)O)cc1` (centres undefined), the AC30 was 19.3 µM.

`O=C(COc1ccc(F)cc1Br)N1CCc2ccccc21`: the AC30 is 4.78 µM.

For the molecule `CCOC(=O)C(NC(=O)c1ccc(F)cc1)(Nc1sc2c(c1C(N)=O)CCC2)C(F)(F)F` (centres undefined), the AC30 is 16.3 µM.

Turning to `O=C(Nc1ccc(Cl)cc1)OCc1ccccn1`, the AC30 is 9.15 µM.

Regarding `Nc1ccc(N=Nc2ccccc2Cl)c(N)n1`, the AC30 was 4.42 µM.

Consider `COc1ccc2[nH]c(=O)c(CNc3ccccc3C)cc2c1`, for which the AC30 was 17.3 µM.

Take `O=C(NCCN1CCOCC1)c1cc(-c2ccccc2)on1`: the AC30 was 8.01 µM.

Regarding `Cc1cc(O)c(NC(=O)c2cccc([N+](=O)[O-])c2)cc1C`, the AC30 is 11.2 µM.

In the case of `O=C(CCc1nnc(C2CCCCC2)o1)N1CCN(c2ccccc2F)CC1`, the AC30 is 8.97 µM.

For `O=C(O)c1ccc(N=Nc2c(O)[nH]c3cc(Cl)ccc23)cc1`, the AC30 was 4.78 µM.

As to `Nc1ccc2nc3c(=O)n(C4CCCCC4)c(=O)[nH]c3nc2c1`, the AC30 is 10.5 µM.

Consider `CC(C)c1ccc(NC(=O)c2ccccc2NC(=O)C2CCCCC2C(=O)O)cc1` (centres undefined), for which the AC30 was 15.5 µM.

Take `Cc1ccc(OCC(=O)Nc2ccccc2C(N)=O)cc1`: the AC30 was 7.04 µM.

Turning to `Nc1ccc(-c2nc3cc([N+](=O)[O-])ccc3o2)cc1`, the AC30 was 4.78 µM.

In the case of `O=C(OCC(=O)c1ccc(Br)s1)c1ccc(O)cc1`, the AC30 is 15.8 µM.

With `O=C(Cc1nc2ccccc2[nH]1)c1ccc([N+](=O)[O-])cc1`, the AC30 was 7.12 µM.

Take `COc1cc(/C=C/c2ccc3cccc(O)c3n2)cc(OC)c1OC`: the AC30 was 13.7 µM.

On to `N/C(=N\OC(=O)c1ccco1)c1ccc(Cl)cc1`, for which the AC30 is 11.8 µM.

As to `Cc1ccc(C(=O)Nc2cccc(-c3ccc(N4CCOCC4)nn3)c2)cc1[N+](=O)[O-]`, the AC30 was 9.12 µM.
